PubChem BioAssay AID1845201 (Molecular Pharmacology Branch, DTP, NCI, 2023)
“And” between values parts separate entries of the source, which are not always exact repeats. Identical values can stand only once.

Test system: COR L88 complex tumor spheroid viability
Experiment: Anticancer human tumor COR L88 cell line growth inhibition;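 also: compound exposure lasted 7 days before viability readout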;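 as to viability, T/C: percent of DMSO vehicle-treated spheroids = 100%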
Details: for viability, T/C: stronger effect = lower value; active = viability on the fitted dose curve at most 10% of control; inactive = the rest
Summary of the method: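 Single agents and combinations were tested on spheroids built from tumor cells plus HUVEC and hMSC, at half-log dilutions starting at or near clinical Cmax, else 10 microM; final DMSO 0.25% (v/v).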

[1] = curve of first compound, second compound 0.003 µM

COc1ccc([C@@H](O)c2cc(-c3ncnc4cc(N5CCOCC5)ccc34)c(F)cc2Cl)nn1 + CC[C@@]1(O)C(=O)OCc2c1cc1n(c2=O)Cc2cc3c(CN(C)C)c(O)ccc3nc2-1
132 nM: IC50 (curve of first compound, second compound 0.3 µM)
inactive: viability, T/C (second compound 0.003 µM, first compound 0.0316 µM) 96.3% | viability, T/C (second compound 0.003 µM, first compound 0.1 µM) 101% | viability, T/C (second compound 0.003 µM, first compound 0.316 µM) 94.2% | viability, T/C (second compound 0.003 µM, first compound 1 µM) 71.8% | viability, T/C (second compound 0.003 µM, first compound 3.16 µM) 52.3% | viability, T/C (second compound 0.003 µM, first compound 10 µM) 34.6% | viability, T/C (second compound 0.00949 µM, first compound 0.0316 µM) 68.3% | viability, T/C (second compound 0.00949 µM, first compound 0.1 µM) 68.7% | viability, T/C (second compound 0.00949 µM, first compound 0.316 µM) 67.9% | viability, T/C (second compound 0.00949 µM, first compound 1 µM) 57.6% | viability, T/C (second compound 0.00949 µM, first compound 3.16 µM) 52.9% | viability, T/C (second compound 0.00949 µM, first compound 10 µM) 40.6% | viability, T/C (second compound 0.03 µM, first compound 0.0316 µM) 53.1% | viability, T/C (second compound 0.03 µM, first compound 0.1 µM) 53.6% | viability, T/C (second compound 0.03 µM, first compound 0.316 µM) 46.6% | viability, T/C (second compound 0.03 µM, first compound 1 µM) 40.1% | viability, T/C (second compound 0.03 µM, first compound 3.16 µM) 32% | viability, T/C (second compound 0.03 µM, first compound 10 µM) 38.5% | viability, T/C (second compound 0.0949 µM, first compound 0.0316 µM) 55.3% | viability, T/C (second compound 0.0949 µM, first compound 0.1 µM) 53.2% | viability, T/C (second compound 0.0949 µM, first compound 0.316 µM) 45.2% | viability, T/C (second compound 0.0949 µM, first compound 1 µM) 40.5% | viability, T/C (second compound 0.0949 µM, first compound 3.16 µM) 31.8% | viability, T/C (second compound 0.0949 µM, first compound 10 µM) 31.7% | viability, T/C (second compound 0.3 µM, first compound 0.0316 µM) 54.2% | viability, T/C (second compound 0.3 µM, first compound 0.1 µM) 51% | viability, T/C (second compound 0.3 µM, first compound 0.316 µM) 43.9% | viability, T/C (second compound 0.3 µM, first compound 1 µM) 37.6% | viability, T/C (second compound 0.3 µM, first compound 3.16 µM) 18.6%
98.3 nM: IC50 (curve of first compound, second compound 0.03 µM)
3180 nM: IC50 [1]
122 nM: IC50 (curve of first compound, second compound 0.0949 µM)
4000 nM: IC50 (curve of first compound, second compound 0.00949 µM)
active: viability, T/C (second compound 0.3 µM, first compound 10 µM) 8.14%

CC1COCCN1c1cc(-c2ccnn2C)c2ccnc(-c3ccn[nH]3)c2n1 (configuration not stated)
inactive: viability, T/C (compound 0.0316 µM) 94.4% and 93.6% and 97.8% | viability, T/C (compound 0.1 µM) 59.7% and 70.8% and 77% | viability, T/C (compound 0.316 µM) 34.2% and 52% and 53.1% | viability, T/C (compound 1 µM) 22.5% and 30.1% and 36% | viability, T/C (compound 3.16 µM) 9.11% and 13.8% and 14.6%
159 nM and 319 nM and 403 nM: IC50 (curve of compound)
active: viability, T/C (compound 10 µM) 3.91% and 5.8% and 5.02%

COc1cc2c(cc1O)CCNC21CSC2c3c(OC(C)=O)c(C)c4c(c3C(COC1=O)N1C(O)C3Cc5cc(C)c(OC)c(O)c5C(C21)N3C)OCO4 (configuration not stated)
active: viability, T/C (compound 0.003 µM) 0.67% [middle of 10 runs]
1.02 nM [middle of 10 runs]: IC50 (compound alone, run of 10/25/2019)
inactive: viability, T/C (compound 30 pM) 103% [middle of 10 runs] | viability, T/C (compound 94.9 pM) 110% [middle of 10 runs] | viability, T/C (compound 0.0003 µM) 71.5% [middle of 10 runs] | viability, T/C (compound 0.000949 µM) 59.8% [middle of 10 runs]

Cc1sc2c(c1C)C(c1ccc(Cl)cc1)=NC(CC(=O)Nc1ccc(O)cc1)c1nnc(C)n1-2 (configuration not stated)
inactive: viability, T/C (compound 0.00949 µM) 93.4% and 99.2% and 89.1% | viability, T/C (compound 0.03 µM) 94.7% and 94.8% and 84.9% | viability, T/C (compound 0.0949 µM) 103% and 94.4% and 85.7% | viability, T/C (compound 0.3 µM) 63.8% and 67.1% and 47.9% | viability, T/C (compound 0.949 µM) 37.4% and 33.8% and 21.4% | viability, T/C (compound 3 µM) 20.6% and 19.2% and 17.3%
534 nM and 543 nM and 283 nM: IC50 (curve of compound)

COc1ccc([C@@H](O)c2cc(-c3ncnc4cc(N5CCOCC5)ccc34)c(F)cc2Cl)nn1
inactive: viability, T/C (compound 0.0316 µM) 108% and 105% and 101% | viability, T/C (compound 0.1 µM) 98.8% and 102% and 98.1% | viability, T/C (compound 0.316 µM) 103% and 93.9% and 104% | viability, T/C (compound 1 µM) 76.1% and 83% and 81.6% | viability, T/C (compound 3.16 µM) 56% and 64.4% and 54.8% | viability, T/C (compound 10 µM) 33.7% and 39% and 36.1%
4010 nM and 6100 nM: IC50 (curve of compound)

[2H]c1nc(C)nc([2H])c1-c1cc(NC[C@@H](C)c2cccc3c(C(=O)NC)ccnc23)ncn1 + Cn1nnc2c(C(N)=O)ncn2c1=O
> 10000 nM: IC50 (curve of first compound, second compound 1 µM) | IC50 (curve of first compound, second compound 3.16 µM) | IC50 (curve of first compound, second compound 10 µM) | IC50 (curve of first compound, second compound 31.6 µM) | IC50 (curve of first compound, second compound 100 µM)
inactive: viability, T/C (second compound 1 µM, first compound 0.0316 µM) 97.1% | viability, T/C (second compound 1 µM, first compound 0.1 µM) 98.5% | viability, T/C (second compound 1 µM, first compound 0.316 µM) 89.8% | viability, T/C (second compound 1 µM, first compound 1 µM) 93.3% | viability, T/C (second compound 1 µM, first compound 3.16 µM) 96% | viability, T/C (second compound 1 µM, first compound 10 µM) 97% | viability, T/C (second compound 3.16 µM, first compound 0.0316 µM) 94.5% | viability, T/C (second compound 3.16 µM, first compound 0.1 µM) 95.3% | viability, T/C (second compound 3.16 µM, first compound 0.316 µM) 105% | viability, T/C (second compound 3.16 µM, first compound 1 µM) 98.6% | viability, T/C (second compound 3.16 µM, first compound 3.16 µM) 102% | viability, T/C (second compound 3.16 µM, first compound 10 µM) 103% | viability, T/C (second compound 10 µM, first compound 0.0316 µM) 92.2% | viability, T/C (second compound 10 µM, first compound 0.1 µM) 93.3% | viability, T/C (second compound 10 µM, first compound 0.316 µM) 97.7% | viability, T/C (second compound 10 µM, first compound 1 µM) 88.7% | viability, T/C (second compound 10 µM, first compound 3.16 µM) 88.9% | viability, T/C (second compound 10 µM, first compound 10 µM) 98.7% | viability, T/C (second compound 31.6 µM, first compound 0.0316 µM) 80% | viability, T/C (second compound 31.6 µM, first compound 0.1 µM) 85.6% | viability, T/C (second compound 31.6 µM, first compound 0.316 µM) 75.9% | viability, T/C (second compound 31.6 µM, first compound 1 µM) 82.4% | viability, T/C (second compound 31.6 µM, first compound 3.16 µM) 82.2% | viability, T/C (second compound 31.6 µM, first compound 10 µM) 75.8% | viability, T/C (second compound 100 µM, first compound 0.0316 µM) 66% | viability, T/C (second compound 100 µM, first compound 0.1 µM) 66.6% | viability, T/C (second compound 100 µM, first compound 0.316 µM) 63.7% | viability, T/C (second compound 100 µM, first compound 1 µM) 69.5% | viability, T/C (second compound 100 µM, first compound 3.16 µM) 64.2% | viability, T/C (second compound 100 µM, first compound 10 µM) 65.8%

Cn1ncnc1[C@H]1c2n[nH]c(=O)c3cc(F)cc(c23)N[C@@H]1c1ccc(F)cc1 + COc1cc2c(cc1O)CCNC21CSC2c3c(OC(C)=O)c(C)c4c(c3C(COC1=O)N1C(O)C3Cc5cc(C)c(OC)c(O)c5C(C21)N3C)OCO4
inactive: viability, T/C (second compound 30 pM, first compound 0.00949 µM) 90.9% | viability, T/C (second compound 30 pM, first compound 0.03 µM) 72.8% | viability, T/C (second compound 30 pM, first compound 0.0949 µM) 58.9% | viability, T/C (second compound 30 pM, first compound 0.3 µM) 47.3% | viability, T/C (second compound 30 pM, first compound 0.949 µM) 43.9% | viability, T/C (second compound 30 pM, first compound 3 µM) 37.3% | viability, T/C (second compound 94.9 pM, first compound 0.00949 µM) 77.1% | viability, T/C (second compound 94.9 pM, first compound 0.03 µM) 61.3% | viability, T/C (second compound 94.9 pM, first compound 0.0949 µM) 50.5% | viability, T/C (second compound 94.9 pM, first compound 0.3 µM) 45.8% | viability, T/C (second compound 94.9 pM, first compound 0.949 µM) 42.5% | viability, T/C (second compound 94.9 pM, first compound 3 µM) 38.5% | viability, T/C (second compound 0.0003 µM, first compound 0.00949 µM) 57.9% | viability, T/C (second compound 0.0003 µM, first compound 0.03 µM) 51.9% | viability, T/C (second compound 0.0003 µM, first compound 0.0949 µM) 46.1% | viability, T/C (second compound 0.0003 µM, first compound 0.3 µM) 43.6% | viability, T/C (second compound 0.0003 µM, first compound 0.949 µM) 39.4% | viability, T/C (second compound 0.0003 µM, first compound 3 µM) 41% | viability, T/C (second compound 0.000949 µM, first compound 0.00949 µM) 53.6% | viability, T/C (second compound 0.000949 µM, first compound 0.03 µM) 45% | viability, T/C (second compound 0.000949 µM, first compound 0.0949 µM) 44.2% | viability, T/C (second compound 0.000949 µM, first compound 0.3 µM) 36.2% | viability, T/C (second compound 0.000949 µM, first compound 0.949 µM) 13.9%
active: viability, T/C (second compound 0.000949 µM, first compound 3 µM) 2.75% | viability, T/C (second compound 0.003 µM, first compound 0.00949 µM) 1.06% | viability, T/C (second compound 0.003 µM, first compound 0.03 µM) 0.96% | viability, T/C (second compound 0.003 µM, first compound 0.0949 µM) 0.96% | viability, T/C (second compound 0.003 µM, first compound 0.3 µM) 0.79% | viability, T/C (second compound 0.003 µM, first compound 0.949 µM) 1.64% | viability, T/C (second compound 0.003 µM, first compound 3 µM) 2.68%
40.1 nM: IC50 (curve of first compound, second compound 0.0003 µM)
120 nM: IC50 (curve of first compound, second compound 94.9 pM)
< 9.49 nM: IC50 (curve of first compound, second compound 0.000949 µM) | IC50 [1]
255 nM: IC50 (curve of first compound, second compound 30 pM)
